Test results reported in patent US20240316017A1, “NOVEL PYRIDINE DERIVATIVE COMPOUND AS RON INHIBITOR” (LG CHEM, LTD., priority 2021, published 2024).

Key:
RON = RON (Homo sapiens, UniProt Q04912); test: Evaluation of inhibitory activity against RON (TR-FRET kinase assay); type: biochemical; settings: RON protein, ULight-labeled Poly GT substrate
Experimental: In order to measure the inhibitory activity of each of the compounds of Examples against RON, the IC50 of each of the compounds was measured using Time-resolved fluorescence energy transfer (TR-FRET).
(§1) Specifically, the compound was prepared to a concentration of 1 mM in 100% DMSO and was diluted 10 times in a stepwise manner through 3-fold dilution. The compound (2 ul) diluted in a stepwise manner was added to a 96-well-plate containing 48 ul of a 1× kinase reaction buffer (50 mM HEPES (pH 7.4), 0.01% Tween-20, 5 mM DTT, 0.5 mM Na3VO4, 2 mM EGTA, 10 mM MgCl2).
The RON protein was diluted to a concentration of 49.3 nM in a RON storage buffer (50 mM Tris-HCl (pH 7.5), 150 mM NaCl, 0.5 mM EDTA, 0.02% Triton X-100), and then diluted again to a concentration of 0.4 nM in a 1×kinase reaction buffer. As a substrate cocktail, a RON-specific substrate mixed solution (40 uM ULight-labeled Poly GT, 100 nM ATP) was prepared at a concentration 2 times the final reaction concentration.
(§2) Thereafter, a 384-well-plate was prepared, and 2.5 μl of each of the diluted compounds of Examples was added to a corresponding well of experimental group wells, and 2.5 μl of a 4% DMSO solution was dispensed into high control wells and low control wells.
(§3) Thereafter, 2.5 μL of 0.4 nM RON was dispensed into each of the high control wells and the experimental group wells, and 2.5 μL of the 1× kinase reaction buffer was added to the low control wells, and all the wells were centrifuged at room temperature for 40 seconds at 1,000 RPM, and then incubated at room temperature for 20-30 minutes. Then, 5 uL of the substrate cocktail (2×) was dispensed into each well, and all the wells were centrifuged at room temperature for 40 seconds at 1,000 RPM, and then incubated at room temperature for 60 minutes. Thereafter, 5 uL of 30 mM EDTA was added to each well to terminate the reaction, and all the wells were then incubated again at room temperature for 5 minutes. Thereafter, 5 uL of a 4× phosphotyrosine antibody (Perkin Elmer) containing europium was added to each well, and all the wells were then incubated at room temperature for 60 minutes. After the incubation, the 384-well-plate was read with the Vison plate reader. In this case, the excitation wavelength was 340 nm, and the emission wavelength was 620 nm and 665 nm. The IC50 value of each compound of Examples was derived using the GraphPd Prism7 program.

cMET = cMET (Homo sapiens, UniProt P08581); test: Evaluation of inhibitory activity against MET (TR-FRET kinase assay); type: biochemical; settings: cMET protein, TK peptide substrate
Experimental: In addition, in order to measure the enzyme activity inhibition for cMET, the evaluation was performed in the same manner as the enzyme activity inhibition measurement experiment for RON.
as §1, with “7.4), 0.05% BSA, 0.005%” for “7.4), 0.01%”, “Tween-20, 1” for “Tween-20, 5”, “mM MnCl2, 20” for “mM Na3VO4, 2 mM EGTA, 10”
The cMET protein was diluted to a concentration of 263 nM in a cMET storage buffer (50 mM Tris-HCl (pH 7.5), 150 mM NaCl, 0.05% Brij35, 1 mM DTT, 10% Glycerol), and then diluted again to a concentration of 2 nM in a 1× kinase reaction buffer. As a substrate cocktail, a MET-specific substrate mixed solution (5 uM TK peptide, 10 mM ATP) was prepared at a concentration 2 times the final reaction concentration.
as §2
as §3, with “of 2” for “of 0.4”, “nM cMET” for “nM RON”, “the 1×kinase” for “the 1× kinase”, “of 90” for “of 30”

Chain of RON (Q04912 25-1400, species assumed): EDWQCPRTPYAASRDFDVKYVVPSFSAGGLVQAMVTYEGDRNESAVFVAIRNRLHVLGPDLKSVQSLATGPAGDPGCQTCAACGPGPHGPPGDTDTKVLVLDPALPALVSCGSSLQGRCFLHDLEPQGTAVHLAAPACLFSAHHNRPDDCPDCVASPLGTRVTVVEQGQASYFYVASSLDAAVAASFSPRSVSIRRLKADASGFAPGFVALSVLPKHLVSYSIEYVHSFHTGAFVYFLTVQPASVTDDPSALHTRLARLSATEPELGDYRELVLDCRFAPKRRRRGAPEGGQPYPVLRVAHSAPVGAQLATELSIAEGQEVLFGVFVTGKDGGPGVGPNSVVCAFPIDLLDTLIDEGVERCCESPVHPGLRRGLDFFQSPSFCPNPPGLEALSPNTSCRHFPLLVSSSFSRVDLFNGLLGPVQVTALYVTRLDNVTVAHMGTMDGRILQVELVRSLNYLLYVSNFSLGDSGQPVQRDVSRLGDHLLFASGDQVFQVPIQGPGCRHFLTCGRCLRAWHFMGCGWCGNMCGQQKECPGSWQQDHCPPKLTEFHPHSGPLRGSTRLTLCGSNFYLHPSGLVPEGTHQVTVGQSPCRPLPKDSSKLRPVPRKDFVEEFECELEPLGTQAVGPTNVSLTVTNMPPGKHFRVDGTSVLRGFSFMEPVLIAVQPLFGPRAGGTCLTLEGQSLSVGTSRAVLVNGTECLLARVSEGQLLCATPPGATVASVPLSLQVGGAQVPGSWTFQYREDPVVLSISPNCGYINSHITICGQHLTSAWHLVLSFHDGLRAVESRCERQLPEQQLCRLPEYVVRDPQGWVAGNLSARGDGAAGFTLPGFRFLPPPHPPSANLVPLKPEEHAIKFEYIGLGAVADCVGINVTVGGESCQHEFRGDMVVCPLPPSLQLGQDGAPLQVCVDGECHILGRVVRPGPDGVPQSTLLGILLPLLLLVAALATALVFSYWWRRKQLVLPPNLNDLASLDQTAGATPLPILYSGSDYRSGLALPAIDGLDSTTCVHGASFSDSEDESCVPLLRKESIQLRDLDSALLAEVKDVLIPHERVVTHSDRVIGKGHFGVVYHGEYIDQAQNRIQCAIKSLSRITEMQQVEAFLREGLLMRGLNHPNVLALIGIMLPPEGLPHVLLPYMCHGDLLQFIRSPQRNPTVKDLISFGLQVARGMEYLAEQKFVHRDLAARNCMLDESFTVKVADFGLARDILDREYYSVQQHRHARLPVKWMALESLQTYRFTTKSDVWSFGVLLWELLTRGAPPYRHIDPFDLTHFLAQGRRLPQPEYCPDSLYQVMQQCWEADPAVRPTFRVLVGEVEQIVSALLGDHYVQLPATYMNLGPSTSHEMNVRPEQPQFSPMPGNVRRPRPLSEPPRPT
Chain of cMET (P08581 25-1390): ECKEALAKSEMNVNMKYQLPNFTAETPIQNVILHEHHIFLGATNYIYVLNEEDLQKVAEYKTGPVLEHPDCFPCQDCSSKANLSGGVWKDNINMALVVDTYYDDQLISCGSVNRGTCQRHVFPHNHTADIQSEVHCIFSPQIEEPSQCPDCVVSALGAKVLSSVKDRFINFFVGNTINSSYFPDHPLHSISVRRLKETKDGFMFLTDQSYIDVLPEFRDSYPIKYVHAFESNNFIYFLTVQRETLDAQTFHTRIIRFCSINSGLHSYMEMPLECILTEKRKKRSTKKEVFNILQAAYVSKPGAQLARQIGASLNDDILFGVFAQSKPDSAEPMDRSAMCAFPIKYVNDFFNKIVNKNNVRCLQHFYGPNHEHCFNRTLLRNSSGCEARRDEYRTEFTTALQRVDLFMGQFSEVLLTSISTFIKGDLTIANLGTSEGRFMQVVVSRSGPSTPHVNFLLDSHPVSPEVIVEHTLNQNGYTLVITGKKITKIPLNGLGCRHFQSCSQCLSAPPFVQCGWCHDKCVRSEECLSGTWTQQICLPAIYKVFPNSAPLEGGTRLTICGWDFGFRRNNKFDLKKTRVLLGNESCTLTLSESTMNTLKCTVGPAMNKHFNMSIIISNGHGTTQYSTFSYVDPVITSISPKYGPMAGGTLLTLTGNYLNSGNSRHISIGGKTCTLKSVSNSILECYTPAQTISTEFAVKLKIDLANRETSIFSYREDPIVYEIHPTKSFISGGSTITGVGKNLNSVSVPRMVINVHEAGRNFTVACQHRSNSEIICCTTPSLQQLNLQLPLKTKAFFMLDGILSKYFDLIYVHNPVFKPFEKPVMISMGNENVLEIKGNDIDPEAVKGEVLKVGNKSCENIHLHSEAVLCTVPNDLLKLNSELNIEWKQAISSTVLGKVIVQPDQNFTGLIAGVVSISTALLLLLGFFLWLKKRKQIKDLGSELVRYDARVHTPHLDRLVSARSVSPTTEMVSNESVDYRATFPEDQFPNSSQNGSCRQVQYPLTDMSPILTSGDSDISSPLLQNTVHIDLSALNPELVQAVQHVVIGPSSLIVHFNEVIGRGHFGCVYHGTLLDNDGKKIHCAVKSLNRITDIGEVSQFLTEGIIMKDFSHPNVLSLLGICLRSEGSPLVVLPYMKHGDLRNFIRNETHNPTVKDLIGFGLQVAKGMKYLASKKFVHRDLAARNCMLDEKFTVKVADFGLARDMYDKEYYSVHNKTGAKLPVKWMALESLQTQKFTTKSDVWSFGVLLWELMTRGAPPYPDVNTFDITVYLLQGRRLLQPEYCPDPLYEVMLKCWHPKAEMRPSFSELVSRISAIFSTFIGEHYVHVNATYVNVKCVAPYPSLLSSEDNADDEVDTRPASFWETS

| SMILES | IC50 (RON) [nM] | IC50 (cMET) [nM] |
| --- | --- | --- |
| Nc1nccc(Oc2ccc(NC(=O)c3cnn(-c4ccccc4)c3C(F)(F)F)cc2F)c1Cl [Example 2, N-(4-((2-amino-3-chloropyridin-4-yl)oxy)-3-fluorophenyl)-1-phenyl-5-(trifluoromethyl)-1H-pyrazole-4-carboxamide] | < 50 | 500 to 5000 |
| C=CC(=O)Nc1nccc(Oc2ccc(NC(=O)c3ncn(-c4ccccc4)c3C(F)(F)F)cc2F)c1Cl [Example 21] | 50 to 500 | > 5000 |
| Nc1nccc(Oc2ccc(NC(=O)c3cnn(-c4ccccc4Cl)c3C(F)(F)F)cc2F)c1Cl [Example 36, N-(4-((2-amino-3-chloropyridin-4-yl)oxy)-3-fluorophenyl)-1-(2-chlorophenyl)-5-(trifluoromethyl)-1H-pyrazole-4-carboxamide] | 50 to 500 | 500 to 5000 |
| CCOC(=O)N(c1c(Oc2ccc(NC(=O)c3cnn(-c4ccccc4)c3CC)cc2F)ccnc1N)C(C)C [Example 35, Ethyl(2-amino-4-(4-(5-ethyl-1-phenyl-1H-pyrazole-4-carboxamido)-2-fluorophenoxy)pyridin-3-yl)(isopropyl)carbamate] | 500 to 5000 | > 5000 |
| Nc1ncnc(Oc2ccc(NC(=O)c3cnn(-c4ccccc4)c3-c3ccccc3)cc2F)c1Cl [Example 59, N-[4-(6-amino-5-chloro-pyrimidin-4-yl)oxy-3-fluorophenyl]-1,5-diphenyl-pyrazole-4-carboxamide] | 50 to 500 | 500 to 5000 |
| Nc1nccc(Oc2ccc(NC(=O)c3cnn(-c4ccccc4)c3C(F)(F)F)cc2F)c1N [Example 28] | 50 to 500 | > 5000 |
| Nc1ncnc(Oc2ccc(NC(=O)c3cnn(C4CCCCC4)c3C(F)(F)F)cc2F)c1Cl [Example 51] | 50 to 500 | > 5000 |
| Nc1cc(Oc2ccc(NC(=O)c3ncn(-c4ccccc4)c3C(F)(F)F)cc2F)ccn1 [Example 25] | 50 to 500 | > 5000 |
| Nc1nccc(Oc2ccc(NC(=O)c3cnn(C4CCCOC4)c3C(F)(F)F)cc2F)c1Cl (stereo not drawn) [Example 8, N-(4-((2-amino-3-chloropyridin-4-yl)oxy)-3-fluorophenyl)-1-(tetrahydro-2H-pyran-3-yl)-5-(trifluoromethyl)-1H-pyrazole-4-carboxamide] | 50 to 500 | 500 to 5000 |
| Nc1nccc(Oc2ccc(NC(=O)c3cn(-c4ccccc4)nn3)cc2F)c1Cl [Example 40, N-(4-((2-amino-3-chloropyridin-4-yl)oxy)-3-fluorophenyl)-1-phenyl-1H-1,2,3-triazole-4-carboxamide] | > 5000 | > 5000 |
| Nc1ncnc(Oc2ccc(NC(=O)c3cnn(-c4ccccc4)c3C(F)(F)F)cc2F)c1Cl [Example 46, N-(4-((6-amino-5-chloro-pyrimidin-4-yl)oxy)-3-fluorophenyl)-1-phenyl-5-(trifluoromethyl)-1H-pyrazole-4-carboxamide] | 50 to 500 | > 5000 |
| Nc1nccc(Oc2ccc(NC(=O)c3cnn(-c4ccccc4)c3)cc2F)c1Cl [Example 7, N-(4-((2-amino-3-chloropyridin-4-yl)oxy)-3-fluorophenyl)-1-phenyl-1H-pyrazole-4-carboxamide] | 500 to 5000 | > 5000 |
| CCc1c(C(=O)Nc2ccc(Oc3ncnc(N)c3Cl)c(F)c2)cnn1-c1ccccc1 [Example 47] | 50 to 500 | > 5000 |
| Nc1nccc(Oc2ccc(NC(=O)c3cnn(-c4ccccc4)c3Cl)cc2F)c1Cl [Example 18, N-(4-((2-amino-3-chloropyridin-4-yl)oxy)-3-fluorophenyl)-5-chloro-1-phenyl-1H-pyrazole-4-carboxamide] | 50 to 500 | 500 to 5000 |
| Nc1ncnc(Oc2ccc(NC(=O)c3ccn(-c4ccccc4)n3)cc2F)c1Cl [Example 53, N-[4-(6-amino-5-chloro-pyrimidin-4-yl)oxy-3-fluorophenyl]-1-phenyl-pyrazole-3-carboxamide] | 500 to 5000 | > 5000 |
